Source: the supplement of paper PMC10307832

Experiments:
Assay in all cases: relative viability (nuclei count vs DMSO), 5 days (fraction); higher = more cells survive
[1] = compound: CCOc1cc2ncc(C#N)c(Nc3ccc(OCc4ccccn4)c(Cl)c3)c2cc1NC(=O)/C=C/CN(C)C [Neratinib] + CC1(C)CCC(c2ccc(Cl)cc2)=C(CN2CCN(c3ccc(C(=O)NS(=O)(=O)c4ccc(N[C@H](CCN5CCOCC5)CSc5ccccc5)c(S(=O)(=O)C(F)(F)F)c4)cc3)CC2)C1 [Navitoclax] (partner 0.5 µM)
Procedure, shortened: (§1)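 Lung cancer cell lines were pin-tool dosed in 1536-well plates on the day after seeding, with either a lone drug or a fixed anchor-drug dose plus five library-drug doses (not always all listed) in √10 steps. Nuclei were counted on 4× images after 5 days. Relative viability is the ratio of treated-well to vehicle-well nuclei counts, with each value a median of duplicate plates.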

[2] = compound: CCOc1cc2ncc(C#N)c(Nc3ccc(OCc4ccccn4)c(Cl)c3)c2cc1NC(=O)/C=C/CN(C)C [Neratinib] + N=C(N)NC(=N)NCCc1ccccc1 [Phenformin] (partner 250 µM)
Procedure, shortened: as §1

[3] = compound: CCOc1cc2ncc(C#N)c(Nc3ccc(OCc4ccccn4)c(Cl)c3)c2cc1NC(=O)/C=C/CN(C)C [Neratinib] + Nc1nc2[nH]cc(CCc3ccc(C(=O)N[C@@H](CCC(=O)O)C(=O)O)cc3)c2c(=O)[nH]1 [Pemetrexed] (partner 0.2 µM)
Procedure, shortened: as §1

[4] = compound: CCOc1cc2ncc(C#N)c(Nc3ccc(OCc4ccccn4)c(Cl)c3)c2cc1NC(=O)/C=C/CN(C)C [Neratinib] + CC(=O)Nc1cccc(-n2c(=O)n(C3CC3)c(=O)c3c(Nc4ccc(I)cc4F)n(C)c(=O)c(C)c32)c1 [Trametinib] (partner 0.02 µM)
Procedure, shortened: as §1

| Cell Line | relative viability ([1]; first compound 0.01 µM) | relative viability ([1]; first compound 0.03162 µM) | relative viability ([1]; first compound 0.3162 µM) | relative viability ([1]; first compound 1 µM) | relative viability ([2]; first compound 0.01 µM) | relative viability ([2]; first compound 0.03162 µM) | relative viability ([2]; first compound 0.1 µM) | relative viability ([2]; first compound 0.3162 µM) | relative viability ([2]; first compound 1 µM) | relative viability ([3]; first compound 0.01 µM) | relative viability ([3]; first compound 0.03162 µM) | relative viability ([3]; first compound 0.1 µM) | relative viability ([3]; first compound 0.3162 µM) | relative viability ([3]; first compound 1 µM) | relative viability ([4]; first compound 0.01 µM) | relative viability ([4]; first compound 0.03162 µM) | relative viability ([4]; first compound 0.1 µM) | relative viability ([4]; first compound 0.3162 µM) | relative viability ([4]; first compound 1 µM) | relative viability ([1]; first compound 0.1 µM) |
| --- | --- | --- | --- | --- | --- | --- | --- | --- | --- | --- | --- | --- | --- | --- | --- | --- | --- | --- | --- | --- |
| NCI-H460 | 1.37 | 1.3 | 1.11 | 0.441 | 0.58 | 0.675 | 0.414 | 0.491 | 0.341 | 0.062 | 0.0586 | 0.063 | 0.0641 | 0.0813 | 0.233 | 0.116 | 0.083 | 0.154 | 0.0847 | – |
| NCI-H1793 | 0.757 | 0.497 | 0.352 | 0.217 | 0.392 | 0.516 | 0.281 | 0.273 | 0.255 | 0.92 | 0.778 | 0.637 | 0.666 | 0.414 | 0.454 | 0.509 | 0.407 | 0.361 | 0.253 | 0.371 |
| NCI-H2347 | 0.819 | 0.945 | 0.786 | 0.698 | 0.416 | 0.565 | – | 0.338 | 0.244 | 0.423 | 0.479 | 0.396 | 0.495 | 0.449 | 0.264 | 0.317 | 0.262 | 0.248 | 0.266 | 0.68 |
| HARA | 1.17 | 1.12 | 0.922 | 0.644 | 0.387 | 0.578 | 0.385 | 0.318 | 0.215 | 0.317 | 0.276 | 0.196 | – | 0.238 | 0.545 | 0.786 | 0.516 | – | 0.303 | 0.562 |
| NCI-H1792 | 0.622 | 0.833 | – | 0.591 | 0.298 | 0.2 | 0.292 | 0.261 | 0.26 | 0.826 | 1.16 | 0.716 | 0.812 | 0.538 | 0.476 | 0.663 | 0.423 | 0.39 | 0.26 | 0.612 |
| NCI-H1703 | 1.46 | 0.921 | 0.884 | 0.286 | – | – | – | – | – | – | – | – | – | – | – | – | – | – | – | 0.929 |
| CAL-12T | 1.27 | 1.59 | 0.632 | 0.232 | 0.55 | 0.572 | 0.488 | 0.254 | 0.179 | 1.38 | 1.17 | 0.946 | 0.798 | 0.329 | 0.322 | 0.322 | 0.236 | 0.254 | 0.223 | 0.94 |
| PC-3 [JPC-3] | 0.731 | 0.826 | 0.624 | 0.333 | 0.459 | 0.497 | 0.432 | 0.365 | 0.336 | 1.44 | 1.32 | 1.07 | 0.564 | 0.43 | 0.745 | 0.831 | 0.629 | 0.427 | 0.435 | 0.784 |
| NCI-H2087 | 1.04 | 0.896 | 1 | 0.444 | 0.493 | 0.567 | 0.391 | 0.415 | 0.234 | 0.634 | 0.74 | 0.655 | 0.694 | 0.548 | 0.19 | 0.173 | 0.15 | 0.194 | 0.16 | – |
| NCI-H1395 | 1.16 | 1.24 | 1.08 | 0.734 | 0.461 | 0.484 | 0.462 | 0.428 | 0.388 | 1.01 | 0.982 | 0.862 | 0.877 | 0.614 | 1.18 | 1.18 | 1.11 | 1.11 | 0.65 | 1.14 |
| SW 900 | – | – | – | – | 0.537 | 0.658 | – | 0.609 | 0.309 | 0.514 | 0.473 | 0.426 | 0.454 | 0.371 | 0.866 | 0.906 | 0.527 | 0.729 | 0.467 | – |
| NCI-H520 | 1.1 | 1.42 | 1.03 | 0.779 | 0.599 | 0.78 | 0.53 | 0.496 | 0.287 | 0.631 | 0.735 | – | 0.505 | – | 0.642 | 0.804 | – | 0.605 | 0.421 | 0.965 |
| A549 | 1.42 | 1.25 | 1.12 | 0.528 | 0.162 | 0.189 | – | 0.137 | 0.191 | – | – | – | – | – | – | – | – | – | – | – |
| IA-LM | 0.814 | 0.774 | 0.65 | 0.494 | – | – | – | – | – | – | – | – | – | – | – | – | – | – | – | – |
| EKVX | 0.999 | 1.04 | 0.305 | 0.205 | 0.241 | 0.244 | 0.226 | 0.206 | 0.132 | 0.413 | 0.421 | 0.288 | 0.232 | 0.167 | 0.353 | 0.334 | 0.315 | 0.139 | 0.162 | 0.831 |
| ChaGo-K-1 | 0.986 | 1 | 0.821 | 0.905 | 0.466 | 0.518 | 0.482 | 0.432 | 0.401 | 0.247 | 0.274 | 0.248 | 0.429 | 0.233 | 0.886 | 0.941 | 0.754 | 0.882 | 0.845 | 1.02 |
| NCI-H1755 | 1.06 | – | 1.02 | 0.469 | 0.641 | 0.657 | 0.535 | 0.593 | 0.577 | 0.496 | 0.496 | 0.379 | 0.563 | 0.417 | 0.761 | 0.814 | 0.646 | 0.752 | 0.809 | – |
| NCI-H23 | 0.745 | 1.12 | 0.838 | 0.528 | 0.959 | 0.905 | 0.827 | 0.731 | 0.597 | 0.702 | 0.641 | 0.619 | 0.664 | 0.499 | 0.397 | 0.401 | 0.35 | 0.342 | 0.251 | 0.694 |
| NCI-H2126 | 0.861 | 0.831 | 0.748 | 0.35 | 0.534 | 0.535 | 0.487 | 0.484 | 0.381 | 0.659 | 0.638 | 0.623 | 0.616 | 0.404 | 0.646 | 0.552 | 0.543 | 0.497 | 0.36 | 0.682 |
